Patent US9884806B2, “Cyclic vinylogous amides as bromodomain inhibitors” (ICAHN SCHOOL OF MEDICINE AT MOUNT SINAI, priority 2013, dated 2018)
Like-named read-outs stand apart in the source and are kept apart here.

How the values were obtained:
[1] = system: IL-6 secretion in RAW264.7 cells; assay: LPS-induced IL-6 secretion in murine macrophage RAW264.7 cells (ELISA); type: cell-based; conditions: LPS 1 μg/ml, 24 hours, mouse IL-6 ELISA
Protocol: LPS-Induced IL-6Secretion In Murine Macrophage Raw264.7 Cells RAW264.7 cells were cultivated in Dulbecco's modified Eagle medium (DMEM) (Hyclone, Logan, Utah) supplemented with 10% FBS (fetal bovine serum) (Hyclone, Logan, Utah) at 37° C. in a humidified atmosphere of 5% CO2. Cells in 96-well plates (0.1 ml, 3×10^5 cells/ml) were treated with the test compounds. After 30 min, all supernatants were removed and cells were treated with LPS (lipopolysaccharide) (1 μg/ml) (Sigma-Aldrich Chemical Co., St. Louis, Mo.) and compounds. After 24 hours, the supernatant was collected and mouse IL-6 protein level was measured using ELISA (enzyme-linked immunosorbent assay) (Thermo Scientific, Pittsburgh, Pa.). The compounds dissolved in DMSO were diluted with culture medium to concentrations from 0.28 to 50,000 nM. The final concentration of DMSO was adjusted to 0.05% (v/v). The assay was measured by an absorption reading at 570 nm using EnVison 2104 Multilabel Reader (PerkinElmer, Inc., Waltham, Mass.). Each experiment was performed at least in triplicate, and plotted using Prim, and an IC50 value was calculated.

[2] = system: NO release in RAW264.7 cells; assay: LPS-stimulated nitric oxide (NO) release in murine macrophage RAW264.7 cells (Griess reaction); type: cell-based; conditions: Mus musculus; RAW264.7 cells, LPS 1 μg/ml, 24 hours, nitrite by Griess reaction; read-out: IC50 in inhibition of LPS-induced NO release
Protocol: LPS-Stimulated Nitric Oxide (NO) Release in Murine Macrophage RAW264.7 Cells
RAW264.7 cells was cultivated in DMEM supplemented with 10% FBS at 37° C. in a humidified atmosphere of 5% CO2. Cells in 96-well plates (0.1 ml, 3×10^5 cells/ml) were treated with the test compounds. After 30 min, all supernatants were removed and cells were treated with LPS (1 μg/ml) and the test compounds. After 24 hours, the level of nitrite was measured using Griess reaction G2930 (Promega Corp., Madison, Wis.) [see Bredt and Snyder, Ann Rev Biochem 63, 175-195 (1994)]. The test compounds dissolved in DMSO were diluted with culture medium to concentrations from 0.28 to 50,000 nM. The final concentration of DMSO was adjusted to 0.05% (v/v). The nitrite production was measured by spectrophotometry at 520 nm using EnVison 2104 Multilabel Reader (PerkinElmer, Inc., Waltham, Mass.). Each experiment was performed at least in triplicate and plotted using Prism.

[3] = target: T1, BRD4_2 (Homo sapiens, UniProt O60885); assay: Fluorescence anisotropy binding assay (competition with FITC-labeled MS417 probe), BRD4_2; conditions: FITC-MS417 probe 80 nM, PBS pH 7.4, 1 hour, 25° C.
T1 construct: contains two tandem bromodomains (BrD1 and BrD2)

[4] = system: T-cell-transfer colitis model in Rag1−/− mice; assay: T-cell-transfer colitis study and histopathology; type: in vivo
From the text: FIG. 1 is a graph of body weight as percent change from baseline vs time (in weeks) for treated and untreated mice in which inflammatory colitis has been induced.
FIG. 2 is a gray-scale rendering of a photograph showing the gross morphology of the intestines for treated and untreated mice in which inflammatory colitis has been induced compared to a normal (control) intestine.
T-Cell-Transfer Colitis Study and Histopathology
After 5-7 weeks, mice were killed and colon tissues were excised. Tissues were fixed in 10% buffered formalin and paraffin embedded. The sections (5 μm) of tissue samples stained with hematoxylin and eosin. All the slides were read and scored by an experienced pathologist without previous knowledge of the type of treatment. The degree of inflammation in the epithelium, submucosa and muscularis propria was scored separately.

[5] = target: T2, first bromodomain (BrD1) of human BRD4 (Homo sapiens, UniProt O60885); assay: Fluorescence anisotropy binding assay (competition with FITC-labeled MS417 probe); conditions: FITC-MS417 probe 80 nM, PBS pH 7.4, 1 hour, 25° C., read-out: BRD4_1 IC50
T2 construct: the first bromodomain (BrD1) of human BRD4; poly-His (cleaved yes); made in house
Summary of the method: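 Competitive fluorescence anisotropy in PBS pH 7.4: 80 nM FITC-MS417 probe, 0.25 to 1 μM tag-cleaved BrD1, titrated unlabeled ligand, 1 hour at 25° C. IC50 values were fitted and converted to Ki using a corrected Cheng-Prusoff equation assuming one-site competition.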

[6] = system: mRNA transcript levels of cytokines IL-6, IL-1β and TNFα in RAW264.7 cells; assay: LPS-induced transcriptional activation of cytokines in murine macrophage cells (quantitative PCR); type: cell-based; conditions: Mus musculus
Protocol: LPS-Induced Transcriptional Activation of Cytokines in Murine Macrophage Cells RAW264.7 cells were cultivated with or without a treatment of the compounds as described above. Total RNA was isolated the cells using TRIzol reagent (Gibco, Grand Island, N.Y.) for homogenization. The concentration and integrity of RNA were determined by measuring absorbance at a 260 nm/280 nm ratio. Quantitative PCR was performed to determine the mRNA transcript levels of cytokines IL-6, IL-1β and TNFα with specific primers for these target genes. Each experiment was performed at least in triplicate, and plotted using Prim, and an IC50 value was calculated.

[7] = system: HIV-1 transgenic mice; conditions: model for HIV-associated nephropathy; cited from earlier work

Structure (SMILES)	IC50 [1]	IC50 [2]	IC50 [3]	development of colitis ([4]; CD4+CD45RBhi T cells injected intra-peritoneally into Rag1−/− mice)	gross morphology of the intestines ([4]; after 5-7 weeks, FIG. 2, treated mice vs disease group)	loss of body weight ([4]; mice weighed every week, FIG. 1)	IC50 [5]	IC50 ([6]; RAW264.7 cells, LPS, quantitative PCR of mRNA transcript levels, read-out: IC50 in inhibition of transcriptional activation of the cytokines IL-6, IL-1β and TNFα)	IC50 ([6]; RAW264.7, read-out: IC50 in inhibition of transcriptional activation of the cytokines IL-6, IL-1β and TNFα)	inflammation and kidney injury [7]
COc1ccc(NC(=O)c2ccc(NC3=C(C)C(=O)CC3)c(Cl)c2)cc1 [Example 04-19, 3-chloro-N-(4-methoxyphenyl)-4-((2-methyl-3-oxocyclopent-1-en-1-yl)amino)benzamide]	0.2 to 1 µM	0.1 to 5 µM	1 to 10 µM	inhibits the development of colitis	gross morphology of the intestines is preserved	significantly (P<0.05) inhibits the loss of body weight	< 1 µM	0.1 to 5 µM	–	–
CC1=C(Nc2ccc(C(=O)Nc3ccccc3C)cc2Cl)CCC1=O [Example 04-20, 3-chloro-4-((2-methyl-3-oxocyclopent-1-en-1-yl)amino)-N-(o-tolyl)benzamide]	0.2 to 1 µM	0.1 to 5 µM	1 to 10 µM	–	–	–	< 1 µM	–	0.1 to 5 µM	–
COC(=O)C[C@@H]1N=C(c2ccc(Cl)cc2)c2c(sc(C)c2C)-n2c(C)nnc21 [MS417]	–	–	–	–	–	–	–	–	–	effectively ameliorated inflammation and kidney injury
